Experimental data reported in patent publication US9346769B2, “Tetrazolones as inhibitors of fatty acid synthase” (Infinity Pharmaceuticals, Inc., priority 2010, dated 2016).

Biological target: T1, human FASN (Homo sapiens, UniProt P49327)
T1 construct: was purified from SKBR3 cells using procedures modified from those in Jayakumar et al; endogenous in cells; host or cells: SKBR3 human breast cancer cells (ATCC); Endogenous enzyme purified by ammonium sulfate precipitation and a mono Q column
Assay: FASN NADPH Consumption Assay
Assay type: biochemical
Conditions: human FASN purified from SKBR3 cells; starred symbols
Experimental: Human FASN protein (SEQ ID NO. 1) was purified from SKBR3 cells using procedures modified from those in Jayakumar et al. PNAS 1995, 92:8695-8699. SKBR3 cells were obtained from ATCC and grown in DMEM high glucose medium supplemented with 10% FBS, 1 μg/mL bovine pancreas insulin, 100 U/mL penicillin and 100 µg/mL streptomycin. The confluent cells were trypsinized and washed three times with PBS buffer before frozen in liquid N2 and stored at −80° C. Frozen cells were thawed on ice and resuspended in lysis buffer (25 mM Tris-HCl, pH 7.0, 15 mM NaCl, 1 mM EDTA, and 1 mM DTT) with protease inhibitors. The cells were lysed by sonication, and the cell debris was removed by centrifugation at 20,000 rpm for 30 min. To the supernatant, neutralized saturated ammonium sulfate solution was added to a final concentration of 35%. The solution was left on ice for 1 hr, and the precipitated proteins were harvested by centrifugation at 20,000 rpm for 30 min. The proteins were redissolved in lysis buffer without NaCl and loaded on a mono Q column. Bound proteins were eluted with a linear gradient of NaCl in lysis buffer. Each fraction was analyzed by SDS-PAGE and FASN NADPH consumption assay. The fractions containing FASN were pooled and concentrated to 2-3 mg/mL. Glycerol was added to 20%, and the protein was frozen in liquid N2 and stored at −80° C.
All chemicals were purchased from Sigma (St. Louis, Mo.). The procedures of NADPH consumption assay were similar to those described in Cox et al., PNAS 1983, 80:4233-4237. On a 96-well polypropylene microplate, dilution series (typical concentrations 60 nM-1.0 mM) of test compounds were prepared in DMSO, of which 4.0 μL each was transferred to a black polystyrene assay microplate and mixed with 36 μL FASN assay buffer (50 mM potassium phosphate, pH 7.0, 1.0 mM EDTA, 0.01% NP-40) plus 5.0 mM fresh DTT. FASN protein (40 μL 150 nM FASN) was added per well, and the microplate was incubated at 37° C. for 30 min. Enzyme activity measurement was initiated by addition of 20 μL 5× substrate mixture to final concentrations of 60 nM FASN, 2.4 nM-40 μM compound, 0.2 mM NADPH, 50 μM butyryl-CoA, 0.5 mM malonyl-CoA in 100 μL assay buffer plus 5.0 mM DTT and 4.0% DMSO. NADPH consumption was monitored kinetically by fluorescence (λEx=340 nm, λEm=460 nm) on an EnVision 2100 multilabel plate reader (Perkin Elmer, Waltham, Mass.). FASN enzyme activity (slope) in the presence of 4% DMSO was used as maximum control, whereas background (minimum control) was measured by omission of malonyl-CoA in the substrate mixture. Inhibition curves were fitted by a logistic function to yield IC50 values:
Compounds were assayed as inhibitors of human FASN using the above-described FASN Scintillation Proximity Flashplate Assay (IC50; nM) or FASN NADPH Consumption Assay (*) (IC50; nM). The corresponding activity of the isolated compound is also provided along with the measured mass (ES^+).

T1 sequence (P49327 whole entry): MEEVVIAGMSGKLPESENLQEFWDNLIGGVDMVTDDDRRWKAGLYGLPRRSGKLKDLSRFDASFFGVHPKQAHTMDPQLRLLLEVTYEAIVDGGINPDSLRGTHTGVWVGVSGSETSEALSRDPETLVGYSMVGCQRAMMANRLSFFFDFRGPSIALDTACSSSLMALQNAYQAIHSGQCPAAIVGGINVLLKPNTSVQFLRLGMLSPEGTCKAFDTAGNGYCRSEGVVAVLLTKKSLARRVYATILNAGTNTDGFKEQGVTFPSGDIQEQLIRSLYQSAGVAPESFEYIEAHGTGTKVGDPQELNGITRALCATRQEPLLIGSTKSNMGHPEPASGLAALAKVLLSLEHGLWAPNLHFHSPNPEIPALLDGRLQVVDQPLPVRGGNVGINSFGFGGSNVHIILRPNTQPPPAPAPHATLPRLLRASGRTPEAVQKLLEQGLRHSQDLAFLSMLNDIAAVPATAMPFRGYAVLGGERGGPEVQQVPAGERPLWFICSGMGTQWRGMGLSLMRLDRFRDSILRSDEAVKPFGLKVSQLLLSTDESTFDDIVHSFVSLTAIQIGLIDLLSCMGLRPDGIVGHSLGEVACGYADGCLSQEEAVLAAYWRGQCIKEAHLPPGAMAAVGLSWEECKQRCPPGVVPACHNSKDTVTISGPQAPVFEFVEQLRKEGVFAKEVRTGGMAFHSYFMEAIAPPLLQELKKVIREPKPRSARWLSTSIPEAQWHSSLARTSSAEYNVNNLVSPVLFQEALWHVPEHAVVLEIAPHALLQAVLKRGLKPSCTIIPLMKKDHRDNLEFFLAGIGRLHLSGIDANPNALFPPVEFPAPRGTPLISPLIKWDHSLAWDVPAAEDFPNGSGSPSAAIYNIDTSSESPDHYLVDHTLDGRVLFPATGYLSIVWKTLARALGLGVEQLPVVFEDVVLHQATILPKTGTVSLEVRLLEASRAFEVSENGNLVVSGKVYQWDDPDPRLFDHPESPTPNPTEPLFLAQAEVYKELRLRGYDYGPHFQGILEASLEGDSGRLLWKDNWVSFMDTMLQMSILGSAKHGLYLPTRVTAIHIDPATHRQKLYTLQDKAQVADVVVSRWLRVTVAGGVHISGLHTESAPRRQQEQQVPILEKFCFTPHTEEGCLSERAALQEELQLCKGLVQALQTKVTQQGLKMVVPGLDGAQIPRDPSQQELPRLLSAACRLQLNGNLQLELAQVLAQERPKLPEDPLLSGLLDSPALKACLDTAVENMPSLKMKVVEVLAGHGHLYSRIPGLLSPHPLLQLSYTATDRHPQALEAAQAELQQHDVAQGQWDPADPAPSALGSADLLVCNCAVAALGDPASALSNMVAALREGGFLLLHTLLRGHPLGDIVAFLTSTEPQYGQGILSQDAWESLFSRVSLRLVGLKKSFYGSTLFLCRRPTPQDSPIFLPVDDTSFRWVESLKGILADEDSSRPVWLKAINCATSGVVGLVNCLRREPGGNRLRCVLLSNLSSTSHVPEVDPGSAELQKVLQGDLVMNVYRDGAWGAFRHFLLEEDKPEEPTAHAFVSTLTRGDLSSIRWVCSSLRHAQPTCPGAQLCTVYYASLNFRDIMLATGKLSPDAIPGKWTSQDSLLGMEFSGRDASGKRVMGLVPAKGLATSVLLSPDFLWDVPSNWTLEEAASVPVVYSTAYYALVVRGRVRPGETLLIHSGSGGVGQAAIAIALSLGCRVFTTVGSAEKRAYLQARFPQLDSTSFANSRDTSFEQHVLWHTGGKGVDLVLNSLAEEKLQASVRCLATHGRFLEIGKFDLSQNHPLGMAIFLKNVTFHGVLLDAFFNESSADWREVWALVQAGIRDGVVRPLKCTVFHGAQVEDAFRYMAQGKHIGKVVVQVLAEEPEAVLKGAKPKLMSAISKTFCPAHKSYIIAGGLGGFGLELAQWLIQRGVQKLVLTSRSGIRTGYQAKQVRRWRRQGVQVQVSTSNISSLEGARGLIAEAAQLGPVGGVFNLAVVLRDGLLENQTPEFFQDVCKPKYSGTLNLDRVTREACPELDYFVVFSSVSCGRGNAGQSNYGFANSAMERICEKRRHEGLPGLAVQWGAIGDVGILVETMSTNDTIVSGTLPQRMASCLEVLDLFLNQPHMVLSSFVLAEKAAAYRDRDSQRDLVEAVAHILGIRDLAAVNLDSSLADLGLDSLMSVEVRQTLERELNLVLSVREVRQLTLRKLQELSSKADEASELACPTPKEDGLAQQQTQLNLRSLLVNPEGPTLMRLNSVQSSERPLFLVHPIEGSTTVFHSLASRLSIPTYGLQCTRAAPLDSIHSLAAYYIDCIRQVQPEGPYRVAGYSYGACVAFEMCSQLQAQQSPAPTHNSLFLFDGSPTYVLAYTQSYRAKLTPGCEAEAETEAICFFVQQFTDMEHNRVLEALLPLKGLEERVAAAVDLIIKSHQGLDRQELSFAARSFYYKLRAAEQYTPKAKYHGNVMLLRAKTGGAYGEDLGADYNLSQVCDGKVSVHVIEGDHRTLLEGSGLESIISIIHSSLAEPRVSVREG

| SMILES | IC50 [µM] |
| --- | --- |
| CS(=O)(=O)NCCCN(C(=O)n1nnn(-c2c(Cl)cccc2Cl)c1=O)C1CCCCC1 | 1 to 10 |
| CCN(C(=O)n1nnn(-c2c(Cl)cccc2Cl)c1=O)C1CCN(C(=O)CCC(=O)O)CC1 | 1 to 10 |
| CCN(C(=O)n1nnn(-c2ccc(F)cc2)c1=O)C1CCCCC1 | > 10 |
| CCNC(=O)NCCCN(C(=O)n1nnn(-c2c(Cl)cccc2Cl)c1=O)C1CCCCC1 | 1 to 10 |
| CCN(C(=O)n1nnn(-c2c(Cl)cccc2Cl)c1=O)c1ccc([N+](=O)[O-])cc1F | 0.25 to 1 |
| CCN(C(=O)n1nnn(-c2c(Cl)cccc2Cl)c1=O)C1CCN(C(=O)OC(C)(C)C)CC1 | 1 to 10 |
| O=C(Nc1ccccc1)n1nnn(-c2ccccc2)c1=O | > 10 |
| CCN(C(=O)n1nnn(-c2cc(F)ccc2F)c1=O)C1CCCCC1 | 1 to 10 |
| CCN(C(=O)n1nnn(-c2c(OC)cccc2OC)c1=O)c1ccc(C(=O)O)c(OC)c1 | 0.25 to 1 |
| O=C(N1CCOc2ccccc21)n1nnn(-c2c(F)cccc2F)c1=O | 1 to 10 |
| CCN(C(=O)n1nnn(-c2c(Cl)cccc2Cl)c1=O)C1CCCN(C(=O)OC(C)(C)C)C1 (stereo not shown) | 1 to 10 |
| CN(C(=O)n1nnn(-c2ccccc2Cl)c1=O)c1ccccc1 | 0.25 to 1 |
| CN(C)N(C(=O)n1nnn(-c2ccccc2F)c1=O)C1=CCCCC1 | 0.25 to 1 |
| CN(C)N(C(=O)n1nnn(-c2ccccc2Cl)c1=O)C1=CCCCC1 | 1 to 10 |
| CN(Cc1ccccc1)C(=O)n1nnn(-c2ccccc2Cl)c1=O | 1 to 10 |
| CCN(C(=O)n1nnn(-c2ccccc2OC)c1=O)c1cccc(C(=O)O)c1OC | 0.25 to 1 |
| CCCCC#Cc1ccc(N(C)C(=O)n2nnn(-c3c(F)cccc3F)c2=O)cc1 | 0.25 to 1 |
| CCN(C(=O)n1nnn(-c2ccccc2SC)c1=O)C1CCCCC1 | 1 to 10 |
| O=C(N1CCCC2CCCCC21)n1nnn(-c2ccccc2Oc2ccccc2)c1=O (stereo not shown) | 0.25 to 1 |
| CC(=O)NCCN(C(=O)n1nnn(-c2c(Cl)cccc2Cl)c1=O)C1CCCCC1 | > 10 |
| CCCN(C(=O)n1nnn(-c2ccccc2Cl)c1=O)C1CCCCC1 | 1 to 10 |
| CCN(C(=O)n1nnn(-c2c(Cl)cccc2Cl)c1=O)C1CCCN(C(=O)CCC(=O)O)C1 (stereo not shown) | 1 to 10 |
| CCN(CCOC(=O)[C@H](CC(C)C)NC=O)C(=O)n1nnn(-c2c(Cl)cccc2Cl)c1=O | 1 to 10 |
| CCCCCCCCCCCCN(C)C(=O)n1nnn(-c2ccccc2Cl)c1=O | 0.25 to 1 |

| SMILES | IC50 [µM] |
| --- | --- |
| CC(C)(C)OC(=O)C1CCN(C(=O)n2nnn(-c3c(Cl)cccc3Cl)c2=O)CC1 | 1 to 10 |
| CN(C(=O)n1nnn(-c2ccccc2Cl)c1=O)c1cccc(F)c1 | 0.25 to 1 |
| CCN(C(=O)n1nnn(-c2ccc([N+](=O)[O-])cc2)c1=O)C1CCCCC1 | 1 to 10 |
| CCN(C(=O)n1nnn(-c2c(F)cccc2OC)c1=O)c1ccccc1C(C)(C)C | 1 to 10 |
| CC(C)(C)OC(=O)N[C@@H]1CCN(C(=O)n2nnn(-c3c(Cl)cccc3Cl)c2=O)C1 | 1 to 10 |
| CCN(C(=O)n1nnn(-c2c(C)noc2C)c1=O)C1CCCCC1 | > 10 |
| CCN(C(=O)n1nnn(-c2ccccc2Br)c1=O)C1CCCCC1 | 1 to 10 |
| O=C(OCc1ccccc1)c1ccc(N(CCc2cccnc2)C(=O)n2nnn(-c3c(Cl)cccc3Cl)c2=O)cc1 | 0.25 to 1 |
| CN1C2CCC1CC(N(CCc1ccccc1)C(=O)n1nnn(-c3c(Cl)cccc3Cl)c1=O)C2 (stereo not shown) | > 10 |
| CCN(C(=O)n1nnn(-c2c(Cl)cccc2Cl)c1=O)C1CCN(S(C)(=O)=O)CC1 | 1 to 10 |
| CCN(C(=O)n1nnn(-c2c(Cl)cccc2C(F)(F)F)c1=O)C1CCCCC1 | > 10 |
| CC(C)(C)OC(=O)NC1CCCN(C(=O)n2nnn(-c3c(Cl)cccc3Cl)c2=O)C1 (stereo not shown) | 1 to 10 |
| CC(=O)N[C@@H]1CCN(C(=O)n2nnn(-c3c(Cl)cccc3Cl)c2=O)C1 | > 10 |
| CCN(C(=O)n1nnn(-c2c(Cl)cccc2Cl)c1=O)C1CCCC(C(=O)N2CCN(C)CC2)C1 (stereo not shown) | 1 to 10 |
| CCN(C(=O)n1nnn(-c2c(Cl)cccc2Cl)c1=O)C1CCCN(C(C)=O)C1 (stereo not shown) | 1 to 10 |
| CCN(C(=O)n1nnn(-c2c(Cl)cccc2Cl)c1=O)C1CCC(C(=O)O)CC1 (stereo not shown) | 1 to 10 |
| COc1ccc(C(=O)O)cc1N(CCCCc1ccccc1)C(=O)n1nnn(-c2ccccc2OC)c1=O | 0.25 to 1 |
| CC(=O)NCCCN(C(=O)n1nnn(-c2c(Cl)cccc2Cl)c1=O)C1CCCCC1 | 1 to 10 |
| CCN(C(=O)n1nnn(-c2c(Cl)cccc2Cl)c1=O)C1CCCCC1 | 1 to 10 |
| O=C(N1CCOCC1)n1nnn(-c2ccccc2Cl)c1=O | > 10 |
| CCN(C(=O)n1nnn(-c2c(Cl)cccc2Cl)c1=O)C1CCOC(C)(C)C1 (stereo not shown) | 1 to 10 |
| CCc1ccccc1-n1nnn(C(=O)N(CC)C2CCCCC2)c1=O | 1 to 10 |
| CCN(C(=O)n1nnn(-c2cccc(C#N)c2)c1=O)C1CCCCC1 | > 10 |
| CCN(C(=O)n1nnn(-c2c(C)cccc2C(C)(C)C)c1=O)C1CCCCC1 | > 10 |

Continued, values first:

| IC50 [µM] | SMILES |
| --- | --- |
| 0.06 to 0.25 | CCN(C(=O)n1nnn(-c2c(Cl)cccc2Cl)c1=O)c1ccccc1F |
| 0.25 to 1 | O=C(N1CCCc2ccc(C(F)(F)F)cc21)n1nnn(-c2c(F)cccc2F)c1=O |
| 0.06 to 0.25 | Nc1ccc2c(c1)CCCN2C(=O)n1nnn(-c2c(F)cccc2F)c1=O |
| 0.06 to 0.25 | COc1ccc2c(c1)CCCN2C(=O)n1nnn(-c2c(F)cccc2F)c1=O |
| 0.06 to 0.25 | O=C(N(O)C1CCCCC1)n1nnn(-c2c(F)cccc2F)c1=O |
| < 0.06 | CCN(C(=O)n1nnn(-c2c(F)cccc2F)c1=O)c1ccc(C(=O)NC(C)C)cc1F |
| 0.06 to 0.25 | CCN(C(=O)n1nnn(-c2c(F)cccc2F)c1=O)c1ccc([N+](=O)[O-])cc1F |
| 0.06 to 0.25 | CCN(C(=O)n1nnn(-c2ccccc2OC)c1=O)c1ccc(C(=O)O)cc1 |
| 0.06 to 0.25 | CCN(C(=O)n1nnn(-c2c(Cl)cccc2Cl)c1=O)c1cccc(CO[Si](C)(C)C(C)(C)C)c1 |
| 0.06 to 0.25 | CCN(C(=O)n1nnn(-c2c(Cl)cccc2Cl)c1=O)c1cccc(NS(=O)(=O)C(F)(F)F)c1 |
| < 0.06 | CN(C(=O)n1nnn(-c2c(F)cccc2F)c1=O)c1ccccc1Cl |
| 0.06 to 0.25 | CC(C)N(C(=O)n1nnn(-c2c(F)cccc2F)c1=O)c1ccccc1 |
| 0.06 to 0.25 | CN(C(=O)n1nnn(-c2c(F)cccc2F)c1=O)c1ccccc1Br |
| 0.06 to 0.25 | CCN(C(=O)n1nnn(-c2c(F)cccc2CCc2ccccc2C)c1=O)c1ccccc1 |
| 0.06 to 0.25 | COc1ccc(C(=O)O)cc1N(CCCCc1ccccc1)C(=O)n1nnn(-c2c(F)cccc2F)c1=O |
| 0.06 to 0.25 | CCN(C(=O)n1nnn(-c2c(Cl)cccc2Cl)c1=O)c1ccc(Cl)c(C(=O)O)c1 |
| 0.06 to 0.25 | CN(C(=O)n1nnn(-c2ccccc2Cl)c1=O)c1ccccc1F |
| 0.06 to 0.25 | CCN(C(=O)n1nnn(-c2c(Cl)cccc2Cl)c1=O)c1ccc(C(=O)OCc2ccccc2)c(OC)c1 |
| 0.06 to 0.25 | CN(C(=O)n1nnn(-c2c(F)cccc2F)c1=O)c1cc(F)cc(F)c1 |
| 0.06 to 0.25 | CCN(C(=O)n1nnn(-c2ccccc2OC)c1=O)c1ccc(C(=O)OCc2ccccc2)c(OC)c1 |
| < 0.06 | CCN(C(=O)n1nnn(-c2c(F)cccc2F)c1=O)c1ccc(Br)cc1 |
| 0.06 to 0.25 | CCN(C(=O)n1nnn(-c2c(F)cccc2C(=O)OC)c1=O)c1ccccc1 |
| 0.06 to 0.25 | CCN(C(=O)n1nnn(-c2c(Cl)cccc2Cl)c1=O)c1ccc(NS(=O)(=O)C(F)(F)F)cc1 |
| 0.06 to 0.25 | CCN(C(=O)n1nnn(-c2c(F)cccc2F)c1=O)c1ccc(C(=O)OCc2ccccc2)cc1 |
| 0.06 to 0.25 | CN(C(=O)n1nnn(-c2c(F)cccc2F)c1=O)c1ccccc1 |
